The values below come from patent US9090599B2, “Heteroarylmethyl amides” (Hoffman-La Roche Inc., priority 2010, dated 2015).

Read-outs that look alike come from different tables or passages of the source.

Experiment [1] concerns the target T1, human CB1 receptor (Homo sapiens, UniProt P21554).
T1 construct: expressed in transfected cells; host or cells: human embryonic kidney (HEK) cells, Semliki Forest Virus system, membrane preparations
The experiment in a line: CB1 receptor affinity, [3H]-CP-55,940 displacement, HEK cell membranes. It counts as binding. To be noted: read-out: CB1 receptor affinity [% inhibition @ 10 μM]. As for the experimental part:
(§1) The affinity of the compounds of the invention for cannabinoid receptors was determined using membrane preparations of human embryonic kidney (HEK) cells in which the human CB1 receptor is transiently transfected using a Semliki Forest Virus system in conjunction with [3H]-CP-55,940 as radioligand. After incubation of freshly prepared cell membrane preparation with the [^3H]-ligand, with or without addition of compounds of the invention, separation of bound and free ligand was performed by filtration over glass fiber filters. Radioactivity on the filter was measured by scintillation counting.
(§2) The ability of the compounds to displace the radioligand [^3H]-CP-55,940 was measured at a concentration of 10 μM and values provided as [% inhibition @ 10 μM] both for the CB 1 and CB2 receptor assay, The lower % inhibition is, the lower the likelihood of side effects based on CB1 or CB2 receptor inhibition is.

The target of experiment [2] is T2, human CB2 receptor (Homo sapiens, UniProt P34972).
T2 construct: expressed in transfected cells; host or cells: human embryonic kidney (HEK) cells, Semliki Forest Virus system, membrane preparations
T2 sequence (P34972 whole entry): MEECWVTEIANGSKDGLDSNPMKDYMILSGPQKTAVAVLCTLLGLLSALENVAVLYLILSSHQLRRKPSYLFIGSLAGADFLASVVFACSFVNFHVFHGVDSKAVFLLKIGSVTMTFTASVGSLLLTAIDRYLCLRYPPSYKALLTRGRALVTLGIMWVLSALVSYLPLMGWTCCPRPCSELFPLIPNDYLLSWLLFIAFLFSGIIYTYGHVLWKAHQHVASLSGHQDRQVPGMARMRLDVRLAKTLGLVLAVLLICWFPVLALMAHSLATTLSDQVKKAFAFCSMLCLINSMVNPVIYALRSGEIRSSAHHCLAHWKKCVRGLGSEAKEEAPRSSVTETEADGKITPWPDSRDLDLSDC
The experiment is described as follows: CB2 receptor affinity, [3H]-CP-55,940 displacement, HEK cell membranes. In kind it is binding. To be noted: 10 μM compound, radioligand [3H]-CP-55,940. As for the experimental part:
as §1, with “cannabinoid CB2” for “cannabinoid”, “CB2” for “CB1”, “[^3H]-CP-55,940” for “[3H]-CP-55,940”
as §2

The mark [3] stands for this setting: 10 μM compound, radioligand [3H]-CP-55,940.

T1 sequence (P21554 whole entry): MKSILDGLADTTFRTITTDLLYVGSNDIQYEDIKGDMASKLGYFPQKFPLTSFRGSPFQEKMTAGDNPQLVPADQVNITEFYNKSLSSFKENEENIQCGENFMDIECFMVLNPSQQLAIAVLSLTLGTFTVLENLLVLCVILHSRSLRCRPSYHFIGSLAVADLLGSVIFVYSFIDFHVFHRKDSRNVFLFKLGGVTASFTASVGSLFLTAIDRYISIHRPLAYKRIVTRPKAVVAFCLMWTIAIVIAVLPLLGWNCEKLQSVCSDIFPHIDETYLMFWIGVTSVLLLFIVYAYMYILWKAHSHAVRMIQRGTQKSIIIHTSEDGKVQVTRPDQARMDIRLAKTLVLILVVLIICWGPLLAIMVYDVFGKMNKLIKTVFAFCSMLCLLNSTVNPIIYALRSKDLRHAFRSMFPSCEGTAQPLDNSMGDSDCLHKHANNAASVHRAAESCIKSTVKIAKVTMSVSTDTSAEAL

As for `CC(C)c1nc(CNC(=O)c2cnc(OCC3CC3)c(-c3ccc(Cl)cc3)c2)no1` [Example 51], the inhibition at 10 µM in experiment [1] (setting [3]) came out at 47%; in experiment [2], 2%.
In the same order, the values of `CC(C)c1cc(CNC(=O)c2cc(-c3ccc(Cl)cc3)c(OCC(F)(F)F)nn2)on1` [Example 43, 5-(4-chloro-phenyl)-6-(2,2,2-trifluoro-ethoxy)-pyridazine-3-carboxylic acid (3-isopropyl-isoxazol-5-ylmethyl)-amide] are 37% and 14%.
The corresponding values for `CC(C)c1cc(CNC(=O)c2ccc(OCC(F)(F)F)c(-c3ccc(Cl)cc3)n2)no1` [Example 53, 6-(4-chloro-phenyl)-5-(2,2,2-trifluoro-ethoxy)-pyridine-2-carboxylic acid (5-isopropyl-isoxazol-3-ylmethyl)-amide] are 43% and 23%.
The corresponding values for `Cn1cc(Cl)c(CNC(=O)c2cnc(OCC(F)(F)F)c(-c3ccc(Cl)cc3)c2)n1` [Example 26, N-(4-Chloro-1-methyl-1H-pyrazol-3-ylmethyl)-5-(4-chloro-phenyl)-6-(2,2,2-trifluoro-ethoxy)-nicotinamide] are 40% and 22%.
On to `CC(C)(C)c1nc(CNC(=O)c2cc(-c3ccc(Cl)cc3)c(OCC3CC3)cn2)cs1` [Example 54, N-((2-tert-butylthiazol-4-yl)methyl)-4-(4-chlorophenyl)-5-(cyclopropylmethoxy)picolinamide], for which the inhibition at 10 µM in experiment [1] (setting [3]) turned out to be 20%; in experiment [2] it was 12%.
`COc1cc(CNC(=O)c2cc(-c3ccc(C)c(Cl)c3)c(OCC(F)(F)F)cn2)on1` [Example 73, 4-(3-chloro-4-methylphenyl)-N-((3-methoxyisoxazol-5-yl)methyl)-5-(2,2,2-trifluoroethoxy)picolinamide]: the inhibition at 10 µM in experiment [1] is 22%; in experiment [2], 45%.
With `O=C(NCc1cc(C2CC2)on1)c1cnc(OCC2CC2)c(-c2ccc(Cl)cc2)c1` [Example 30, 5-(4-chloro-phenyl)-N-(5-cyclopropyl-isoxazol-3-ylmethyl)-6-cyclopropyl-methoxy-nicotinamide], the values for the inhibition at 10 µM in experiment [1] (setting [3]) and in experiment [2] were 48% and 38%, respectively.
In the same order, the values of `CC(C)c1cc(CNC(=O)c2cnc(OCC3CC3)c(-c3ccc(Cl)cc3)c2)no1` [Example 32, 5-(4-chlorophenyl)-6-(cyclopropylmethoxy)-N-((5-isopropylisoxazol-3-yl)methyl)nicotinamide] are 47% and 26%.
In the case of `O=C(NCc1ccn(CC2CC2)n1)c1cnc(OCC(F)(F)F)c(-c2ccc(Cl)cc2)c1` [Example 88, 5-(4-chlorophenyl)-N-((1-(cyclopropylmethyl)-1H-pyrazol-3-yl)methyl)-6-(2,2,2-trifluoroethoxy)nicotinamide], the values for the inhibition at 10 µM in experiment [1] (setting [3]) and in experiment [2] were 48% and 11%, respectively.
The corresponding values for `COc1cc(CNC(=O)c2cc(-c3ccc(C)c(C)c3)c(OCC(F)(F)F)cn2)on1` [Example 75, 4-(3,4-dimethylphenyl)-N-((3-methoxyisoxazol-5-yl)methyl)-5-(2,2,2-trifluoroethoxy)picolinamide] are 19% and 34%.
Regarding `COc1cc(CNC(=O)c2cc(-c3ccc(Cl)cc3)c(O[C@@H](C)C(F)(F)F)cn2)on1` [Example 37, (S)-4-(4-chlorophenyl)-N-((3-methoxyisoxazol-5-yl)methyl)-5-(1,1,1-trifluoropropan-2-yloxy)picolinamide], the inhibition at 10 µM in experiment [1] (setting [3]) amounted to 40%; in experiment [2], 20%.
In the same order, the values of `O=C(NCc1cc(C2CC2)no1)c1cc(-c2ccc(Cl)cc2)c(OCC(F)(F)F)cn1` [Example 33, 4-(4-chlorophenyl)-N-((3-cyclopropylisoxazol-5-yl)methyl)-5-(2,2,2-trifluoroethoxy)picolinamide] are 33% and 26%.
The corresponding values for `CC(C)c1noc(CNC(=O)c2cc(-c3ccc(Cl)cc3)c(OCC(F)(F)F)cn2)n1` [Example 40, 4-(4-chlorophenyl)-N-((3-isopropyl-1,2,4-oxadiazol-5-yl)methyl)-5-(2,2,2-trifluoroethoxy)picolinamide] are 29% and 19%.
On to `O=C(NCc1cc(C(F)(F)F)on1)c1ccc(OCC2CC2)c(-c2ccc(Cl)cc2)n1` [Example 58, 6-(4-chloro-phenyl)-5-cyclopropylmethoxy-pyridine-2-carboxylic acid (5-trifluoromethyl-isoxazol-3-ylmethyl)-amide], for which the inhibition at 10 µM in experiment [1] (setting [3]) was 42%; in experiment [2], 19%.
In the same order, the values of `O=C(NCc1cc(C2CC2)no1)c1cc(-c2ccc(Cl)cc2)c(OCC(F)(F)F)nn1` [Example 49, 5-(4-Chloro-phenyl)-6-(2,2,2-trifluoro-ethoxy)-pyridazine-3-carboxylic acid (3-cyclopropyl-isoxazol-5-ylmethyl)-amide] are 36% and 13%.
The corresponding values for `Cc1cc(CNC(=O)c2cc(-c3ccc(Cl)cc3)c(OCC(F)(F)F)cn2)no1` [Example 19, 4-(4-chlorophenyl)-N-((5-methylisoxazol-3-yl)methyl)-5-(2,2,2-trifluoro-ethoxy)picolinamide] are 30% and 43%.
The corresponding values for `C[C@H](Oc1cnc(C(=O)NCc2cc(C(F)(F)F)no2)nc1-c1ccc(Cl)cc1)C(F)(F)F` [Example 68, (S)-4-(4-chlorophenyl)-N-((3-(trifluoromethyl)isoxazol-5-yl)methyl)-5-(1,1,1-trifluoropropan-2-yloxy)pyrimidine-2-carboxamide] are 45% and 3%.
For `Cc1ccc(-c2cc(C(=O)NCc3nc(C(F)(F)F)no3)ncc2OCC(F)(F)F)cc1C` [Example 78, 4-(3,4-dimethylphenyl)-5-(2,2,2-trifluoroethoxy)-N-((3-(trifluoromethyl)-1,2,4-oxadiazol-5-yl)methyl)picolinamide], the inhibition at 10 µM in experiment [1] (setting [3]) worked out at 17%; in experiment [2], 5%.
For the compound `O=C(NCc1nc(C(F)(F)F)no1)c1cnc(OCC(F)(F)F)c(-c2ccc3c(c2)CCC3)c1` [Example 85, 5-(2,3-dihydro-1H-inden-5-yl)-6-(2,2,2-trifluoroethoxy)-N-((3-(trifluoromethyl)-1,2,4-oxadiazol-5-yl)methyl)nicotinamide], the values for the inhibition at 10 µM in experiment [1] (setting [3]) and in experiment [2] were 7% and 8%, respectively.
The corresponding values for `COc1cc(CNC(=O)c2cnc(OCC(F)(F)F)c(-c3ccc(Cl)c(F)c3)c2)on1` [Example 86, 5-(4-chloro-3-fluorophenyl)-N-((3-methoxyisoxazol-5-yl)methyl)-6-(2,2,2-trifluoroethoxy)nicotinamide] are 37% and 9%.
The corresponding values for `CCc1ccc(-c2cc(C(=O)NCc3nc(C(F)(F)F)no3)cnc2OCC(F)(F)F)cc1` [Example 83, 5-(4-ethylphenyl)-6-(2,2,2-trifluoroethoxy)-N-((3-(trifluoromethyl)-1,2,4-oxadiazol-5-yl)methyl)nicotinamide] are 44% and -2%.
The corresponding values for `N#Cc1ccc(-c2cc(C(=O)NCc3nc(C(F)(F)F)no3)cnc2OCC(F)(F)F)cc1` [Example 87, 5-(4-cyanophenyl)-6-(2,2,2-trifluoroethoxy)-N-((3-(trifluoromethyl)-1,2,4-oxadiazol-5-yl)methyl)nicotinamide] are 45% and 3%.
Take `CC(C)c1nc(CNC(=O)c2cc(-c3ccc(Cl)cc3)c(OCC(F)(F)F)cn2)no1` [Example 39, 4-(4-chlorophenyl)-N-((5-isopropyl-1,2,4-oxadiazol-3-yl)methyl)-5-(2,2,2-trifluoroethoxy)picolinamide]: the inhibition at 10 µM in experiment [1] (setting [3]) was determined as 26%; in experiment [2], 21%.
In the same order, the values of `O=C(NCc1nc(C(F)(F)F)no1)c1cnc(OC2CCC2)c(-c2ccc(Cl)c(F)c2)c1` [Example 93, 5-(4-chloro-3-fluorophenyl)-6-cyclobutoxy-N-((3-(trifluoromethyl)-1,2,4-oxadiazol-5-yl)methyl)nicotinamide] are 18% and 7%.
The corresponding values for `O=C(NCc1cc(C2CC2)no1)c1ccc(OCC(F)(F)F)c(-c2ccc(Cl)cc2)n1` [Example 47, 6-(4-chloro-phenyl)-5-(2,2,2-trifluoro-ethoxy)-pyridine-2-carboxylic acid (3-cyclopropyl-isoxazol-5-ylmethyl)-amide] are 46% and 16%.
For the compound `O=C(NCc1cc(C(F)(F)F)on1)c1cc(-c2ccc(Cl)cc2)c(OCC(F)(F)F)cn1` [Example 45, 4-(4-chlorophenyl)-5-(2,2,2-trifluoroethoxy)-N-((5-(trifluoromethyl)isoxazol-3-yl)methyl)picolinamide], the figures for the inhibition at 10 µM in experiment [1] and in experiment [2] were 37% and -2%, respectively.
